From US11472791B2 (Incyte Corporation, priority 2019, dated 2022)
pIC50: −log10 of the molar value.

Each compound was assayed against CDK2/Cyclin E1 (Homo sapiens (Human), UniProt P24941) (assay: CDK2/Cyclin E1 HTRF enzyme activity assay). Conditions: 1 mM ATP.
Format: biochemical
Procedure: Assays are conducted in white 384-well polystyrene plates in a final reaction volume of 8 μL. […] HTRF signals are read after 1 hour at room temperature on a PHERAstar FS plate reader (BMG Labtech). Data is analyzed with IDBS XLFit and GraphPad Prism 5.0 software using a three or four parameter dose response curve to determine IC50 for each compound.

Row | SMILES | pIC50
1 | CCN(CC)CCCS(=O)(=O)N1CCC(Nc2ncc(C#N)c(-c3cnn(CC(C)(C)O)c3)n2)CC1 [Example 213, 2-((1-((3-(Diethylamino)propyl)sulfonyl)piperidin-4-yl)amino)-4-(1-(2-hydroxy-2-methylpropyl)-1H-pyrazol-4-yl)pyrimidine-5-carbonitrile] | > 7.30
2 | CC(C)(O)Cn1cc(-c2nc(NC3CCN(S(=O)(=O)CCCN4CCCC4)CC3)ncc2C#N)cn1 [Example 214, 4-(1-(2-Hydroxy-2-methylpropyl)-1H-pyrazol-4-yl)-2-((1-((3-(pyrrolidin-1-yl)propyl)sulfonyl)piperidin-4-yl)amino)pyrimidine-5-carbonitrile] | > 7.30
3 | CC(C)(O)Cn1cc(-c2nc(NC3CCN(S(=O)(=O)CCCN4CCCCC4)CC3)ncc2C#N)cn1 [Example 215, 4-(1-(2-Hydroxy-2-methylpropyl)-1H-pyrazol-4-yl)-2-((1-((3-(piperidin-1-yl)propyl)sulfonyl)piperidin-4-yl)amino)pyrimidine-5-carbonitrile] | > 7.30
4 | CCN(CC)CCCCS(=O)(=O)N1CCC(Nc2ncc(C#N)c(-c3cnn(CC(C)(C)O)c3)n2)CC1 [Example 216, 2-((1-((4-(Diethylamino)butyl)sulfonyl)piperidin-4-yl)amino)-4-(1-(2-hydroxy-2-methylpropyl)-1H-pyrazol-4-yl)pyrimidine-5-carbonitrile] | > 7.30
5 | CC(C)(O)Cn1cc(-c2nc(NC3CCN(S(=O)(=O)CCCCN4CCCC4)CC3)ncc2C#N)cn1 [Example 217, 4-(1-(2-Hydroxy-2-methylpropyl)-1H-pyrazol-4-yl)-2-((1-((4-(pyrrolidin-1-yl)butyl)sulfonyl)piperidin-4-yl)amino)pyrimidine-5-carbonitrile] | > 7.30
6 | CC(C)(O)Cn1cc(-c2nc(NC3CCN(S(=O)(=O)CCCCN4CCCCC4)CC3)ncc2C#N)cn1 [Example 218, 4-(1-(2-Hydroxy-2-methylpropyl)-1H-pyrazol-4-yl)-2-((1-((4-(piperidin-1-yl)butyl)sulfonyl)piperidin-4-yl)amino)pyrimidine-5-carbonitrile] | > 7.30
7 | COC[C@@H]1CCN1CCCS(=O)(=O)N1CCC(Nc2ncc(C(F)(F)F)c(-c3cnn(CC(C)(C)O)c3)n2)CC1 [Example 221, (S)-1-(4-(2-((1-((3-(2-(Methoxymethyl)azetidin-1-yl)propyl)sulfonyl)piperidin-4-yl)amino)-5-(trifluoromethyl)pyrimidin-4-yl)-1H-pyrazol-1-yl)-2-methylpropan-2-ol] | > 7.30
8 | CC(C)(O)Cn1cc(-c2nc(NC3CCN(S(=O)(=O)CCCN4C[C@@H]5C[C@H]4CO5)CC3)ncc2C(F)(F)F)cn1 [Example 222, 1-(4-(2-((1-((3-((1S,4S)-2-Oxa-5-azabicyclo[2.2.1]heptan-5-yl)propyl)sulfonyl)piperidin-4-yl)amino)-5-(trifluoromethyl)pyrimidin-4-yl)-1H-pyrazol-1-yl)-2-methylpropan-2-ol] | > 7.30
9 | CC(C)(O)Cn1cc(-c2nc(NC3CCN(S(=O)(=O)CCCN4CC[C@@](C)(O)C4)CC3)ncc2C(F)(F)F)cn1 [Example 223, (R)-1-(3-((4-((4-(1-(2-Hydroxy-2-methylpropyl)-1H-pyrazol-4-yl)-5-(trifluoromethyl)pyrimidin-2-yl)amino)piperidin-1-yl)sulfonyl)propyl)-3-methylpyrrolidin-3-ol] | > 7.30
10 | CC(C)(O)Cn1cc(-c2nc(NC3CCN(S(=O)(=O)CCCNC4CC4)CC3)ncc2C(F)(F)F)cn1 [Example 226, 1-(4-(2-((1-((3-(Cyclopropylamino)propyl)sulfonyl)piperidin-4-yl)amino)-5-(trifluoromethyl)pyrimidin-4-yl)-1H-pyrazol-1-yl)-2-methylpropan-2-ol] | > 7.30
11 | CC(C)(O)Cn1cc(-c2nc(NC3CCN(S(=O)(=O)CCO)CC3)ncc2C(F)(F)F)cn1 [Example 227, 1-(4-(2-((1-((2-Hydroxyethyl)sulfonyl)piperidin-4-yl)amino)-5-(trifluoromethyl)pyrimidin-4-yl)-1H-pyrazol-1-yl)-2-methylpropan-2-ol] | > 7.30
12 | Cc1cc(CN2CCNCC2)ccc1-n1cc(-c2nc(NC3CCN(S(=O)(=O)c4cn(C)cn4)CC3)ncc2C(F)(F)F)cn1 [Example 228, N-(1-((1-Methyl-1H-imidazol-4-yl)sulfonyl)piperidin-4-yl)-4-(1-(2-methyl-4-(piperazin-1-ylmethyl)phenyl)-1H-pyrazol-4-yl)-5-(trifluoromethyl)pyrimidin-2-amine] | > 7.30
13 | Cc1cc(CN2CCN(C)[C@@H](CO)C2)ccc1-n1cc(-c2nc(NC3CCN(S(=O)(=O)c4cn(C)cn4)CC3)ncc2C(F)(F)F)cn1 [Example 229, (R)-(1-Methyl-4-(3-methyl-4-(4-(2-((1-((1-methyl-1H-imidazol-4-yl)sulfonyl)piperidin-4-yl)amino)-5-(trifluoromethyl)pyrimidin-4-yl)-1H-pyrazol-1-yl)benzyl)piperazin-2-yl)methanol] | > 7.30
14 | Cc1cc(CN2CCN(C)[C@@H](CC#N)C2)ccc1-n1cc(-c2nc(NC3CCN(S(=O)(=O)c4cn(C)cn4)CC3)ncc2C(F)(F)F)cn1 [Example 230, (S)-2-(1-Methyl-4-(3-methyl-4-(4-(2-((1-((1-methyl-1H-imidazol-4-yl)sulfonyl)piperidin-4-yl)amino)-5-(trifluoromethyl)pyrimidin-4-yl)-1H-pyrazol-1-yl)benzyl)piperazin-2-yl)acetonitrile] | > 7.30
15 | Cc1cc(CN2CCN(C)CC2)ccc1-n1cc(-c2nc(NC3CCN(S(C)(=O)=O)CC3)ncc2C(F)(F)F)cn1 [Example 231, 4-(1-(2-Methyl-4-((4-methylpiperazin-1-yl)methyl)phenyl)-1H-pyrazol-4-yl)-N-(1-(methylsulfonyl)piperidin-4-yl)-5-(trifluoromethyl)pyrimidin-2-amine] | > 7.30

Further lines, results first:

Row | pIC50 | SMILES
16 | > 7.30 | COC1CCN(CCCS(=O)(=O)N2CC[C@H](Nc3ncc(C(F)(F)F)c(-c4cnn(CC(C)(C)O)c4)n3)[C@H](F)C2)CC1 [Example 207, 1-(4-(2-(((3R,4S)-3-Fluoro-1-((3-(4-methoxypiperidin-1-yl)propyl)sulfonyl)piperidin-4-yl)amino)-5-(trifluoromethyl)pyrimidin-4-yl)-1H-pyrazol-1-yl)-2-methylpropan-2-ol]
17 | > 7.30 | CC(C)(O)Cn1cc(-c2nc(N[C@H]3CCN(S(=O)(=O)CCCN4CCC(O)CC4)C[C@H]3F)ncc2C(F)(F)F)cn1 [Example 208, 1-(3-(((3R,4S)-3-Fluoro-4-((4-(1-(2-hydroxy-2-methylpropyl)-1H-pyrazol-4-yl)-5-(trifluoromethyl)pyrimidin-2-yl)amino)piperidin-1-yl)sulfonyl)propyl)piperidin-4-ol]
18 | > 7.30 | CN1CCN(CCCS(=O)(=O)N2CC[C@H](Nc3ncc(C(F)(F)F)c(-c4cnn(CC(C)(C)O)c4)n3)[C@H](F)C2)CC1 [Example 209, 1-(4-(2-(((3R,4S)-3-Fluoro-1-((3-(4-methylpiperazin-1-yl)propyl)sulfonyl)piperidin-4-yl)amino)-5-(trifluoromethyl)pyrimidin-4-yl)-1H-pyrazol-1-yl)-2-methylpropan-2-ol]
19 | > 7.30 | CCN1CCN(CCCS(=O)(=O)N2CC[C@H](Nc3ncc(C(F)(F)F)c(-c4cnn(CC(C)(C)O)c4)n3)[C@H](F)C2)CC1 [Example 210, 1-(4-(2-(((3R,45)-1-((3-(4-Ethylpiperazin-1-yl)propyl)sulfonyl)-3-fluoropiperidin-4-yl)amino)-5-(trifluoromethyl)pyrimidin-4-yl)-1H-pyrazol-1-yl)-2-methylpropan-2-ol]
20 | > 7.30 | CN1C[C@@H]2C[C@H]1CN2CCCS(=O)(=O)N1CC[C@H](Nc2ncc(C(F)(F)F)c(-c3cnn(CC(C)(C)O)c3)n2)[C@H](F)C1 [Example 211, 1-(4-(2-(((3R,4S)-3-Fluoro-1-((3-((1S,4S)-5-methyl-2,5-diazabicyclo[2.2.1]heptan-2-yl)propyl)sulfonyl)piperidin-4-yl)amino)-5-(trifluoromethyl)pyrimidin-4-yl)-1H-pyrazol-1-yl)-2-methylpropan-2-ol]
21 | > 7.30 | CN1CCN(CCCS(=O)(=O)N2CC[C@H](Nc3ncc(C(F)(F)F)c(-c4cnn(CC(C)(C)O)c4)n3)[C@H](F)C2)CC1=O [Example 212, 4-(3-(((3R,4S)-3-Fluoro-4-((4-(1-(2-hydroxy-2-methylpropyl)-1H-pyrazol-4-yl)-5-(trifluoromethyl)pyrimidin-2-yl)amino)piperidin-1-yl)sulfonyl)propyl)-1-methylpiperazin-2-one]
22 | > 7.30 | CO[C@H]1CCN(CCCS(=O)(=O)N2CCC(Nc3ncc(C(F)(F)F)c(-c4cnn(CC(C)(C)O)c4)n3)CC2)C1 [Example 219, (S)-1-(4-(2-((1-((3-(3-Methoxypyrrolidin-1-yl)propyl)sulfonyl)piperidin-4-yl)amino)-5-(trifluoromethyl)pyrimidin-4-yl)-1H-pyrazol-1-yl)-2-methylpropan-2-ol]
23 | > 7.30 | CO[C@@H]1CCN(CCCS(=O)(=O)N2CCC(Nc3ncc(C(F)(F)F)c(-c4cnn(CC(C)(C)O)c4)n3)CC2)C1 [Example 220, (R)-1-(4-(2-((1-((3-(3-Methoxypyrrolidin-1-yl)propyl)sulfonyl)piperidin-4-yl)amino)-5-(trifluoromethyl)pyrimidin-4-yl)-1H-pyrazol-1-yl)-2-methylpropan-2-ol]
24 | > 7.30 | CC(C)(O)Cn1cc(-c2nc(NC3CCN(S(=O)(=O)CCCN4CC[C@@H](O)C4)CC3)ncc2C(F)(F)F)cn1 [Example 224, (R)-1-(3-((4-((4-(1-(2-Hydroxy-2-methylpropyl)-1H-pyrazol-4-yl)-5-(trifluoromethyl)pyrimidin-2-yl)amino)piperidin-1-yl)sulfonyl)propyl)pyrrolidin-3-ol]
25 | > 7.30 | CC(C)(O)Cn1cc(-c2nc(NC3CCN(S(=O)(=O)CCCN4CC(O)C4)CC3)ncc2C(F)(F)F)cn1 [Example 225, 1-(3-((4-((4-(1-(2-Hydroxy-2-methylpropyl)-1H-pyrazol-4-yl)-5-(trifluoromethyl)pyrimidin-2-yl)amino)piperidin-1-yl)sulfonyl)propyl)azetidin-3-ol]
